Measurements published in patent US10584115B2, “Substituted pyridine and pyrazine BMI-1 inhibitors” (PTC Therapeutics, Inc., priority 2013, dated 2020).

Test system: Bmi-1 protein
Assay: Sandwich ELISA Assay (Bmi-1 protein level in HT-1080 cells after compound treatment)
Type: cell-based
Conditions: Table 1, Bmi-1 sandwich ELISA, read-out: ELISA EC50 value for Bmi-1 protein
Procedure, shortened: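 HT-1080 cells exposed to compounds for 40–48 h at 37 °C (0.5% DMSO final), then lysed. Bmi-1 in lysates measured by sandwich ELISA (mouse monoclonal capture, rabbit anti-Bmi-1 detection, HRP anti-rabbit, TMB), read at OD450 with OD570 reference against a recombinant Bmi-1 standard curve (0–8000 pg/mL).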

Compound	EC50 [nM]
Cc1nc2ncccc2n1-c1cc(NC(=O)OC(C)(C)C)cc(Nc2ccc(C(F)(F)F)cc2)n1 [compound 290, tert-butyl[2-(2-methyl-1H-imidazo[4,5-b]pyridin-1-yl)-6-{[4-(trifluoromethyl)phenyl]amino}pyridin-4-yl]carbamate]	100 to 3000
Cc1nc2cc(F)c(F)cc2n1-c1cncc(Nc2ccc(Cl)c(F)c2)n1 [compound 294, N-(4-chloro-3-fluorophenyl)-6-(5,6-difluoro-2-methyl-1H-benzimidazol-1-yl)pyrazin-2-amine]	100 to 3000
Cc1nc(Br)cn1-c1cncc(Nc2ccc(C(F)(F)F)cc2)n1 [compound 298, 6-(4-bromo-2-methyl-1H-imidazol-1-yl)-N-[4-(trifluoromethyl)phenyl]pyrazin-2-amine]	100 to 3000
Cc1nc(C)n(-c2cncc(Nc3ccc(C(F)(F)F)cc3)n2)c1Cl [compound 299, 6-(5-chloro-2,4-dimethyl-1H-imidazol-1-yl)-N-[4-(trifluoromethyl)phenyl]pyrazin-2-amine]	100 to 3000
Cc1nc2cc(F)c(F)cc2n1-c1cncc(Nc2ccc(OC(F)(F)F)c(F)c2)n1 [compound 301, 6-(5,6-difluoro-2-methyl-1H-benzimidazol-1-yl)-N-[3-fluoro-4-(trifluoromethoxy)phenyl]pyrazin-2-amine]	100 to 3000
CNCc1nc2ccccn2c1-c1cncc(Nc2ccc(C(F)(F)F)cc2)n1 [compound 302, 6-{2-[(methylamino)methyl]imidazo[1,2-a]pyridin-3-yl}-N-[4-(trifluoromethyl)phenyl]pyrazin-2-amine]	100 to 3000
Cc1nc(C(F)(F)F)cn1-c1cncc(Nc2ccc(C(F)(F)F)cc2)n1 [compound 303, 6-[2-methyl-4-(trifluoromethyl)-1H-imidazol-1-yl]-N-[4-(trifluoromethyl)phenyl]pyrazin-2-amine]	100 to 3000
Cc1nc(C)n(-c2cncc(Nc3ccc(OC(F)F)cc3)n2)c1Cl [compound 305, 6-(5-chloro-2,4-dimethyl-1H-imidazol-1-yl)-N-[4-(difluoromethoxy)phenyl]pyrazin-2-amine]	100 to 3000
Cc1nc2ccccc2n1-c1cncc(Nc2ccc(OCC(F)(F)F)cc2)n1 [compound 306, 6-(2-methyl-1H-benzimidazol-1-yl)-N-[4-(2,2,2-trifluoroethoxy)phenyl]pyrazin-2-amine]	100 to 3000
Cc1nc2ccccc2n1-c1cncc(Nc2ccc(OC(F)(F)C(F)F)cc2)n1 [compound 307, 6-(2-methyl-1H-benzimidazol-1-yl)-N-[4-(1,1,2,2-tetrafluoroethoxy)phenyl]pyrazin-2-amine]	100 to 3000
Fc1ccc2ncc(-c3cncc(Nc4ccc(C(F)(F)F)cc4)n3)n2c1 [compound 308, 6-(6-fluoroimidazo[1,2-a]pyridin-3-yl)-N-[4-(trifluoromethyl)phenyl]pyrazin-2-amine]	100 to 3000
COc1cc(Nc2cc(C#N)cc(-c3c(C)nc4ccc(F)cn34)n2)ccc1F [compound 314, 2-[(4-fluoro-3-methoxyphenyl)amino]-6-(6-fluoro-2-methylimidazo[1,2-a]pyridin-3-yl)pyridine-4-carbonitrile]	100 to 3000
Cc1nc(C(F)(F)F)c(C)n1-c1cncc(Nc2ccc(C(F)(F)F)cc2)n1 [compound 318, 6-[2,5-dimethyl-4-(trifluoromethyl)-1H-imidazol-1-yl]-N-[4-(trifluoromethyl)phenyl]pyrazin-2-amine]	100 to 3000
FC(F)C(F)(F)Oc1ccc(Nc2cncc(-c3c(C(F)(F)F)nc4ccccn34)n2)cc1 [compound 322, N-[4-(1,1,2,2-tetrafluoroethoxy)phenyl]-6-[2-(trifluoromethyl)imidazo[1,2-a]pyridin-3-yl]pyrazin-2-amine]	100 to 3000
Cc1nc2ccccc2n1-c1cncc(Nc2ccc(OC(F)F)c(F)c2)n1 [compound 324, N-[4-(difluoromethoxy)-3-fluorophenyl]-6-(2-methyl-1H-benzimidazol-1-yl)pyrazin-2-amine]	10 to 100
Cc1nc2ncccc2n1-c1cncc(Nc2ccc(OC(F)F)c(F)c2)n1 [compound 325]	10 to 100
Cc1nc2cc(F)c(F)cc2n1-c1cc(C#N)cc(Nc2ccc(OC(F)F)c(F)c2)n1 [compound 326, 2-{[4-(difluoromethoxy)-3-fluorophenyl]amino}-6-(5,6-difluoro-2-methyl-1H-benzimidazol-1-yl)pyridine-4-carbonitrile]	10 to 100
CCn1nc(C(F)(F)F)c(-c2cncc(Nc3ccc(OC(F)F)cc3)n2)c1C [compound 330, N-[4-(difluoromethoxy)phenyl]-6-[1-ethyl-5-methyl-3-(trifluoromethyl)-1H-pyrazol-4-yl]pyrazin-2-amine]	10 to 100
Cc1nc2c(F)cccc2n1-c1cncc(Nc2ccc(C(F)(F)F)cc2)n1 [compound 339, 6-(4-fluoro-2-methyl-1H-benzimidazol-1-yl)-N-[4-(trifluoromethyl)phenyl]pyrazin-2-amine]	10 to 100
Cc1nc2ccc(C(F)(F)F)cc2n1-c1cncc(Nc2ccc(C(F)(F)F)cc2)n1 [compound 340, 6-[2-methyl-6-(trifluoromethyl)-1H-benzimidazol-1-yl]-N-[4-(trifluoromethyl)phenyl]pyrazin-2-amine]	100 to 3000
Cc1nc(Br)c(C)n1-c1cncc(Nc2ccc(C(F)(F)F)cc2)n1 [compound 341, 6-(4-bromo-2,5-dimethyl-1H-imidazol-1-yl)-N-[4-(trifluoromethyl)phenyl]pyrazin-2-amine]	100 to 3000

Results, then the compound that gave them:

EC50 [nM]	Compound
10 to 100	N#Cc1cc(Nc2ccc(C(F)(F)F)cc2)nc(-c2c(CO)nc3ccccn23)c1 [compound 288, 2-[2-(hydroxymethyl)imidazo[1,2-a]pyridin-3-yl]-6-{[4-(trifluoromethyl)phenyl]amino}pyridine-4-carbonitrile]
10 to 100	OCCNc1cc(Nc2ccc(C(F)(F)F)cc2)nc(-c2c(C(F)(F)F)nc3ccc(F)cn23)c1 [compound 291, 2-[(2-[6-fluoro-2-(trifluoromethyl)imidazo[1,2-a]pyridin-3-yl]-6-{[4-(trifluoromethyl)phenyl]amino}pyridin-4-yl)amino]ethanol]
1 to 10	Cc1nc2ncccc2n1-c1cc(N)cc(Nc2ccc(C(F)(F)F)cc2)n1 [compound 292, 6-(2-methyl-1H-imidazo[4,5-b]pyridin-1-yl)-N^2-[4-(trifluoromethyl)phenyl]pyridine-2,4-diamine]
10 to 100	Fc1cnc2nc(C3CC3)n(-c3cncc(Nc4ccc(C(F)(F)F)cc4)n3)c2c1 [compound 293, 6-(2-cyclopropyl-6-fluoro-1H-imidazo[4,5-b]pyridin-1-yl)-N-[4-(trifluoromethyl)phenyl]pyrazin-2-amine]
10 to 100	Cc1nc2cc(F)c(F)cc2n1-c1cncc(Nc2ccc(C(F)(F)F)c(F)c2)n1 [compound 295, 6-(5,6-difluoro-2-methyl-1H-benzimidazol-1-yl)-N-[3-fluoro-4-(trifluoromethyl)phenyl]pyrazin-2-amine]
10 to 100	Cc1nc2c(N)cccc2n1-c1cncc(Nc2ccc(C(F)(F)F)cc2)n1 [compound 296, 2-methyl-1-(6-{[4-(trifluoromethyl)phenyl]amino}pyrazin-2-yl)-1H-benzimidazol-4-amine]
10 to 100	Cc1cn(-c2cncc(Nc3ccc(C(F)(F)F)cc3)n2)c(C)n1 [compound 300]
10 to 100	Cc1nc2cc(F)c(F)cc2n1-c1cncc(Nc2ccc(C(F)(F)F)nc2)n1 [compound 304, 6-(5,6-difluoro-2-methyl-1H-benzimidazol-1-yl)-N-[6-(trifluoromethyl)pyridin-3-yl]pyrazin-2-amine]
1 to 10	Cc1nc2ccc(F)cn2c1-c1cncc(Nc2ccc(OC(F)F)c(F)c2)n1 [compound 309, N-[4-(difluoromethoxy)-3-fluorophenyl]-6-(6-fluoro-2-methylimidazo[1,2-a]pyridin-3-yl)pyrazin-2-amine]
1 to 10	COc1c(F)cc(Nc2cc(C#N)cc(-c3c(C)nc4ccc(F)cn34)n2)cc1F [compound 313, 2-[(3,5-difluoro-4-methoxyphenyl)amino]-6-(6-fluoro-2-methylimidazo[1,2-a]pyridin-3-yl)pyridine-4-carbonitrile]
10 to 100	COc1ccc2nc(C)n(-c3cncc(Nc4ccc(C(F)(F)F)cc4)n3)c2c1 [compound 317, 6-(6-methoxy-2-methyl-1H-benzimidazol-1-yl)-N-[4-(trifluoromethyl)phenyl]pyrazin-2-amine]
10 to 100	Cc1nc2cc(F)c(F)cc2n1-c1cncc(Nc2ccc(OC(F)F)c(F)c2)n1 [compound 319, N-[4-(difluoromethoxy)-3-fluorophenyl]-6-(5,6-difluoro-2-methyl-1H-benzimidazol-1-yl)pyrazin-2-amine]
10 to 100	FC(F)(F)COc1ccc(Nc2cncc(-c3c(C(F)(F)F)nc4ccccn34)n2)cc1 [compound 321, N-[4-(2,2,2-trifluoroethoxy)phenyl]-6-[2-(trifluoromethyl)imidazo[1,2-a]pyridin-3-yl]pyrazin-2-amine]
1 to 10	Fc1cc(Nc2cncc(-c3c(C(F)(F)F)nc4ccccn34)n2)ccc1OC(F)F [compound 323, N-[4-(difluoromethoxy)-3-fluorophenyl]-6-[2(trifluoromethyl)imidazo[1,2-a]pyridin-3-yl]pyrazin-2-amine]
1 to 10	CCc1nc2ncc(Cl)cc2n1-c1cncc(Nc2ccc(C(F)(F)F)cc2)n1 [compound 327, 6-(6-chloro-2-ethyl-1H-imidazo[4,5-b]pyridin-1-yl)-N-[4-(trifluoromethyl)phenyl]pyrazin-2-amine]
1 to 10	OCc1nc2ccc(F)cn2c1-c1cncc(Nc2ccc(C(F)(F)F)cc2)n1 [compound 328, [6-fluoro-3-(6-{[4-(trifluoromethyl)phenyl]amino}pyrazin-2-yl)imidazo[1,2-a]pyridin-2-yl]methanol]
1 to 10	CCc1nn(C)c(CC)c1-c1cncc(Nc2ccc(OC(F)F)cc2)n1 [compound 333, 6-(3,5-diethyl-1-methyl-1H-pyrazol-4-yl)-N-[4-(difluoromethoxy)phenyl]pyrazin-2-amine]
